The nature of this data set: solvent given as SMILES.

Several values for one entry are separate records, joined by “and”; a condition that tells them apart may be missing. Equal entries are not always repeated.

In turn, `O=C1CCCC2=C1CC1=C(CCCC1=O)N2NC(=O)c1ccc(O)cc1` showed a fluorescence lifetime (in CC#N) of 6.2 ns; a fluorescence lifetime (in CC(C)=O) of 5.6 ns; a fluorescence lifetime (in CCCCCO) of 6.5 ns; a fluorescence lifetime (in CO) of 4.8 ns; a fluorescence lifetime (in ClC(Cl)Cl) of 8.2 ns; a fluorescence lifetime (in ClCCl) of 5.4 ns.
For `CCCCCCCCC1(CCCCCCCC)c2cc(-c3ccc(C#N)cc3)ccc2-c2ccc(-c3ccc(C#N)cc3)cc21`, the fluorescence lifetime (in CN(C)C=O) was found to be 0.95 ns.
`c1ccc(-c2ccc3c(c2)c2cc(-c4ccccc4)ccc2n3-c2ccc3c(c2)c2cc(-n4c5ccc(-c6ccccc6)cc5c5cc(-c6ccccc6)ccc54)ccc2n3-c2ccc(-c3nc(-c4ccccc4)nc(-c4ccccc4)n3)cc2)cc1` came in with a fluorescence lifetime (in Cc1ccccc1) of 6.3 ns.
Regarding `CCN(CC)c1ccc(-c2nc3cc(C(NC(=O)OC(C)(C)C)C(=O)OC)ccc3o2)c(O)c1` (centres undefined), the fluorescence lifetime reads like this: (in CC1CCCCC1) 0.22 ns; (in CC#N) 0.67 ns; (in CO) 0.25 ns.
Consider `CCCCCCCCCCCCCCCCOc1cc(C#Cc2ccc3ccccc3c2-c2c(C#Cc3cc(OCCCCCCCCCCCCCCCC)c(C#Cc4ccc(C=C(C#N)C#N)cc4)cc3OCCCCCCCCCCCCCCCC)ccc3ccccc23)c(OCCCCCCCCCCCCCCCC)cc1C#Cc1ccc(C=C(C#N)C#N)cc1`, for which the fluorescence lifetime runs as follows: (in Brc1ccccc1) 2.8 ns; (in C1CCCCC1) 2.02 ns; (in C1CCOC1) 1.25 ns; (in C1COCCO1) 3.06 ns; (in CCCCCC) 2.15 ns; (in CCCCCCCCO) 0.79 ns. The fluorescence lifetime (in CCCCOCCCC) is 2.74 ns; the fluorescence lifetime (in CCOC(C)=O) was 1.51 ns; the fluorescence lifetime (in CCOCC) came out at 3.29 ns; the fluorescence lifetime (in Cc1ccccc1) is 2.59 ns; the fluorescence lifetime (in ClC(Cl)(Cl)Cl) came out at 2.16 ns; the fluorescence lifetime (in ClC(Cl)Cl) came to 2.35 ns. For the same compound, the fluorescence lifetime (in ClCCl) stood at 0.79 ns.
As to `CN(C)c1ccc2nc(-c3ccc(/C=N/c4ccccc4)cc3)sc2c1`, for the setting “in C1CCCCC1”, the fluorescence lifetime stood at 2.2 ns.
For the compound `c1ccc(-c2cc(-c3ccccc3)cc(-c3ccc4c(c3)C3(c5ccccc5-4)c4ccccc4-c4c3c3c5ccccc5c(-c5cc(-c6ccccc6)cc(-c6ccccc6)c5)cc3c3ccccc43)c2)cc1` (centres undefined), for the setting “in Cc1ccccc1”, the fluorescence lifetime was 2.14 ns.
With `COc1cc2c(cc1-c1ccc(N(c3ccccc3)c3ccccc3)cc1)Cc1c3c(c4c(c1-2)-c1cc(OC)c(-c2ccc(N(c5ccccc5)c5ccccc5)cc2)cc1C4)C(=O)N(CCC(C)C)C3=O`, the fluorescence lifetime (in C1CCOC1) is 4.14 ns.
As for `CC(C)(C)c1ccc(-c2nc3c4ccc(-c5c6ccccc6cc6ccccc56)cc4c4cc(-c5c6ccccc6cc6ccccc56)ccc4c3n2-c2ccc(C(C)(C)C)cc2)cc1`, the fluorescence lifetime (in ClCCl) is 6.1 ns.
Still for that read-out and setting: to `COc1ccc2oc(=N)c(C#N)cc2c1` belongs 1.6 ns.
In the case of `COc1ccc(-c2nc(-c3ccc(-c4nc(-c5ccc(OC)cc5)c(-c5ccc(OC)cc5)[nH]4)cc3)[nH]c2-c2ccc(OC)cc2)cc1`, the fluorescence lifetime (in CC#N) is 1.1 ns and 1.24 ns.
`CC(C)(C)c1ccc(C2=C(c3ccc(C(C)(C)C)cc3)[Si](c3ccccc3)(c3ccccc3)c3ccccc32)cc1` yielded a fluorescence lifetime (in C1CCOC1) of 1.62 ns.
Compound `O=c1oc2c(ccc3ccccc32)nc1-c1ccccc1` returned a fluorescence lifetime (in c1ccccc1) of 6 ns.
The compound `COC(=O)C(NC(=O)OC(C)(C)C)c1ccc2oc(-c3ccc(C#N)cc3)nc2c1` (centres undefined) displayed a fluorescence lifetime (in CC1CCCCC1) of 1.28 ns, a fluorescence lifetime (in CC#N) of 1.87 ns and a fluorescence lifetime (in CO) of 1.92 ns.
The compound `Cc1ccc(C2=Nc3cccc4[n+]3[B-](c3ccccc3)(N2)NC(c2ccc(C)cc2)=N4)cc1` came in with a fluorescence lifetime (in ClCCl) of 2.6 ns.
Consider `COc1ccc(/C=C/C2=[O+][B-](F)(F)OC(/C=C/c3ccc(OC)cc3)=C2c2ccc(OC)cc2)cc1`, for which the fluorescence lifetime (in ClCCl) was 1.31 ns.
Still for that read-out and setting: as for `CCCCCCC1(CCCCCC)c2ccccc2-c2ccc(-c3ccc(-c4cc(-c5ccccn5)nc(-c5ccccn5)c4)cc3)cc21`, the figure is 0.77 ns.
Same read-out and setting: to `COC(=O)c1cc(=O)n(C)c2cc(-c3ccccc3N(C)C)sc12` belongs 1.23 ns.
In turn, `CC1=CC(/C=C/c2ccc([N+](C)(C)C)cc2)=[N+]2C1=C(c1ccc(I)cc1)c1c(C)cc(/C=C/c3ccc([N+](C)(C)C)cc3)n1[B-]2(F)F` returned a fluorescence lifetime (in CC#N) of 5.1 ns.
`CN(C)c1ccc(C#Cc2ccccc2)cc1`: the fluorescence lifetime reads like this: (in C1CCCCC1) 0.38 ns; (in C1CCOC1) 0.589 ns; (in C1COCCO1) 0.71 ns; (in CC1CCCO1) 0.414 ns; (in CC#N) 1.25 ns; (in CC(C)=O) 1.83 ns. Besides, the fluorescence lifetime worked out at 0.35 ns (in CC(C)CC(C)(C)C); 0.43 ns (in CCCCCCCCCCCCCCCC); 0.66 ns (in CCCCCCCCCCCCCCCCCl); 1.16 ns (in CCOC(C)=O); 0.411 ns (in CCOCC); 1.24 ns (in CN(C)C=O). In addition, the fluorescence lifetime by setting is: (in CS(C)=O) 0.757 ns; (in Cc1ccccc1) 0.58 ns.
As for `Cc1ccc(-c2cnc3nn4ccccc4c3c2)cc1`, for the setting “in C1CCOC1”, the fluorescence lifetime came out at 4.6 ns.
In the case of `CCc1c(C)[nH]c(C2=[N+]3C(=Cc4c(C)c(CC)c(C)n4[B-]3(F)F)c3ccccc32)c1C`, the fluorescence lifetime (in ClCCl) turned out to be 6.3 ns.
Same read-out and setting: as for `CC1=C(I)C(C)=[N+]2C1=C(c1c(-c3ccccn3)nc3ccccn13)c1c(C)c(I)c(C)n1[B-]2(F)F`, the figure is 0.4 ns.
Compound `CC(=O)OC[C@H]1O[C@@H](OCC#Cc2ccc(C3=C4C(C)=CC(/C=C/c5ccc(N(C)C)cc5)=[N+]4[B-](F)(F)n4c(/C=C/c5ccc(N(C)C)cc5)cc(C)c43)cc2)[C@H](OC(C)=O)C(OC(C)=O)[C@@H]1OC(C)=O` (some centres undefined) yielded a fluorescence lifetime (in CC#N) of 2.4 ns.
In turn, `C[SiH](C)c1cccc2ccccc12` returned a fluorescence lifetime (in C1CCCCC1) of 61 ns.
With `COc1ccc(-c2c3cc4ccccc4cc3c(-c3ccc(OC)cc3)c3cc4sc(C)cc4cc23)cc1`, the fluorescence lifetime (in ClCCl) was 15.4 ns.
Regarding `c1ccc(Cn2c3sccc3c3c4nsnc4c4c5ccsc5n(Cc5ccccc5)c4c32)cc1`, the fluorescence lifetime is, setting by setting: (in Cc1ccccc1) 13.5 ns; (in ClCCl) 16.2 ns.
For the compound `Cn1c2ccc(S(=O)(=O)O)cc2c(=O)c2cc(S(=O)(=O)O)ccc21`, the fluorescence lifetime is, setting by setting: (in CS(C)=O) 10.6 ns; (in O) 16.7 ns.
For `C#CCNC1=C2C(C)=CC(C)=[N+]2[B-](F)(F)n2c(C)cc(C)c21`, the fluorescence lifetime by setting is: (in C1CCCCC1) 1.78 ns; (in CC(C)=O) 0.61 ns; (in CCOC(C)=O) 0.78 ns; (in CO) 0.518 ns; (in OCC(F)(F)F) 0.76 ns.
In the case of `CCN(CC)c1ccc2cc(C#N)/c(=N\C(C)=O)oc2c1`, the fluorescence lifetime was 1.8 ns (in CCO) and 4 ns (in ClCCl).
On to `NS(=O)(=O)c1ccc(N2N=C(c3ccc(O)cc3)CC2c2ccc(F)cc2)cc1` (centres undefined), for which the fluorescence lifetime is, setting by setting: (in C1CCOC1) 2.42 ns; (in C1COCCO1) 2.33 ns; (in CC#N) 2.24 ns; (in CC(C)O) 1.98 ns; (in CCO) 1.78 ns; (in CCOC(C)=O) 2.35 ns. The fluorescence lifetime is, setting by setting: (in CN(C)C=O) 2.45 ns; (in CO) 1.64 ns; (in CS(C)=O) 2.45 ns; (in O) 3.17 ns.
With `CC1=CC(C)=[N+]2C1=Cc1c3ccccc3c(C#Cc3cccs3)n1[B-]2(F)F`, the fluorescence lifetime was 4.69 ns (in CCCCCC), 3.74 ns (in CCCCCCCCO), 4.07 ns (in CCOC(C)=O) and 3.46 ns (in CN(C)C=O).
Where the note is “in ClCCl”, `CCCCCCCCCCOc1ccc(C#Cc2cc3c(C#Cc4ccc(OCCCCCCCCCC)cc4)c(C#Cc4ccc(OCCCCCCCCCC)cc4)c4cc(C#Cc5ccc(OCCCCCCCCCC)cc5)cc5c(C#Cc6ccc(OCCCCCCCCCC)cc6)c(C#Cc6ccc(OCCCCCCCCCC)cc6)c(c2)c3c45)cc1` came in with a fluorescence lifetime of 15.3 ns.
Turning to `CCC1=C(C)C2=C(C)c3c(C)c(CC)c(C)n3[B-](F)(F)[N+]2=C1C`, the fluorescence lifetime by setting is: (in C1CCCCC1) 5.6 ns; (in C1CCOC1) 5.63 ns; (in C1COCCO1) 5.48 ns; (in CC#N) 5.96 ns; (in CC(C)=O) 5.92 ns; (in CC(C)O) 6.04 ns. The fluorescence lifetime runs as follows: (in CCC(C)C) 6.28 ns; (in CCCCCC) 5.9 ns; (in CCCCCCCC) 5.84 ns; (in CCCCCCCCCCO) 5.71 ns; (in CCCCCCCCO) 5.9 ns; (in CCCCCCO) 5.78 ns. For the same compound, the fluorescence lifetime runs as follows: (in CCCCO) 5.98 ns; (in CCCO) 6.01 ns; (in CCO) 6.09 ns; (in CCOC(C)=O) 5.78 ns; (in CCOCC) 6.21 ns; (in CN1CCCC1=O) 5.56 ns. Also, the fluorescence lifetime is, setting by setting: (in CN(C)C=O) 5.57 ns; (in CO) 6.1 ns; (in Cc1ccccc1) 5.07 ns; (in OCC(F)(F)F) 6.94 ns; (in OCCO) 5.8 ns; (in OCCOc1ccccc1) 5.46 ns. For the setting “in c1ccccc1”, this compound registered a fluorescence lifetime of 5 ns.
The compound `CCCCCn1c2ccccc2c(=O)c2ccccc21` registered a fluorescence lifetime (in CS(C)=O) of 8.1 ns.
`F[B-]1(F)OC(c2cccc(Br)c2)=Cc2c3ccccc3c3ccccc3[n+]21` gave a fluorescence lifetime (in ClC(Cl)Cl) of 0.315 ns.
With `COC(=O)/C(C#N)=c1/cc/c(=c2/cc/c(=C(\C#N)C(=O)OC)s2)s1`, the fluorescence lifetime (in Cc1ccccc1) stood at 0.016 ns.
For `Fc1ccc(N(c2ccccc2)c2ccc3ccc4c(N(c5ccccc5)c5ccc(F)cc5)ccc5ccc2c3c54)cc1`, the fluorescence lifetime (in ClCCl) came to 5.5 ns.
`CCN1/C(=C\c2c(-c3ccc(N(C)C)cc3)c(=O)c2=O)C=Cc2ccccc21`: the fluorescence lifetime was determined as 1 ns (in C1CCCCC1), 1.85 ns (in Cc1ccccc1) and 0.1 ns (in ClCCl).
Under “in Cc1ccccc1”, `N#Cc1c(-n2c3ccccc3c3ccccc32)c(-n2c3ccccc3c3ccccc32)c(-n2c3ccccc3c3ccccc32)c(-n2c3ccc(-c4ccccc4)cc3c3cc(-c4ccccc4)ccc32)c1-n1c2ccccc2c2ccccc21` gave a fluorescence lifetime of 7 ns.

For the origin of these results see the Deep4Chem optical property database.
